Data: patent US5504244A, “Alkylarylketo acids” (Boehringer Ingelheim Pharmaceuticals, Inc., priority 1993, dated 1996)
Like-named read-outs stand apart in the source and are kept apart here.

Columns and labels:
guinea pig ileal strips = assay: Modified Schultz-Dale Assay: inhibition of antigen-induced anaphylactic contraction of passively sensitized ileal strips; type: cell-based; conditions: Cavia porcellus; for IC50: value in parentheses
Method: In the classic Schultz-Dale assay, guinea pigs are sensitized with a known immunogen or passively sensitized with guinea pig antiserum to the immunogen, strips of ilea are recovered, and the extent of their contraction in response to a challenge exposure to the same antigen is observed as a measure of anaphylactic response. The experiments described here follow this same procedure while exposing the ileal strips to test compound before exposure to antigen challenge (preincubation) and, in some strips, also after antigen challenge (postincubation).
The male Hartley strain guinea pigs (450-650 g) whose ilea are used in this Schultz-Dale assay are passively sensitized with IgE antiovalbumin antiserum as follows. The antiserum is developed in another group of similar guinea pigs as described in Graziano, et al., J. Immunol. 127:1067-1070 (1981) and pooled. The test animals are then each passively sensitized by subcutaneous injection of the pooled antiserum (1 ml).
About 2-7 days after sensitization, the guinea pigs are sacrificed and the terminal ilea are removed. They are cut into strips (6 cm) and positioned in tissue baths (5 ml) of Tyrode's solution with atropine (1 μg/ml) at 37° C. One end of each strip is fixed to an immobile post and the other movably mounted to a Grass Ft. 0.03 linear force displacement transducer and a Grass Model 7 polygraph. The tension is set (at 1 gram) and the tissue is allowed to equilibrate (10 minutes). Tissue viability is tested by establishing a consistent response to histamine (0.5 μg/ml). After several histamine-induced contractions, mepyramine (1 μg/ml) is added to inhibit any contractions due to the anaphylactic release of endogenous histamine.
A minimum of 3 animals are used for each compound tested and, of the 6 strips from each animal, 2 strips are incubated (preincubation) with a test compound (final concentration 75 μM), 2 with an appropriate reference standard (BW-755C at 75 μM) and 2 with saline solution (control) for a predetermined period (5 minutes). After this initial incubation period, ovalbumin (100 μg/ml) is added to each bath and the resulting anaphylactic contraction measured. The data are recorded as of tension produced by the tissue in excess of the 1 gram tension that was initially set. At the peak of the contraction, a dose of the same test compound (75 μM) is added (postincubation) to one control strip and reference standard (FPL-55712 at 1.9 μM). The strips are monitored (1 minute) and any effect on the established contraction is recorded as described above.
Two types of data are derived from the above protocol. First, pre-antigen inhibition (prechallenge) is expressed as the percent inhibition in each of the strips preincubated with test compound measured against the averaged contractions of the two control strips. Prechallenge inhibition by the reference standard is also determined in each experiment as a positive control. The reference used consistently gives 60-80% inhibition. Second, post-antigen inhibition (postchallenge) is determined by measuring the decrease in anaphylactic contraction of a control strip produced by adding either a test compound or standard at the peak of the contraction. The reference used consistently gives 70-90% inhibition. The data in each experiment, therefore, consists of 2 prechallenge and 1 postchallenge value for both test compound and standard.

[1] = test system: 5-HETE biosynthesized by glycogen-stimulated polymorphonuclear leucocytes (PMNs); assay: Hydroxyacid Profile Assay (HPA): inhibition of 5-HETE synthesis in glycogen-elicited rabbit PMNs; type: cell-based; conditions: Oryctolagus cuniculus, Leucocyte; for inhibition at 100 µM: 5-HETE synthesis, read-out: Percent Inhibition (100 μM); for IC50: read-out: IC50 (50% inhibition of 5-HETE synthesis)
Method: As previously noted 5-HETE biosynthesis serves as a marker for arachidonic acid metabolism via the 5-lipoxygenase pathway which produces (poly)hydroxyeicosatetraenoic acids and the potent bronchoconstrictor and vasoactive leukotrienes LTC4, LTD4 and LTE4.
Buffer A (8.70 g NaCl; 0.27 g KCl; 0.42 g Na2 HPO4; 0.76 g KH2 PO4; and 1.00 g dextrose per liter H2 O; pH 7.0) (0.325 ml) is introduced into each of a battery of screwtop culture tubes. Then, a solution of a compound (0.100 ml) to be assayed is dispensed into individual tubes. Assays are performed in duplicate at 100 μM and 10 μM concentrations. Control tubes receive Buffer A (0 100 ml) in lieu of compound. Next, rabbit PMNs (2×10^7 cells/tube; 4×10^7cells/ml) (0.500 ml) are added to each tube. The rabbit PMN's used are elicited with glycogen and made into a preparation substantially as described by F. Hirata. et al (1979) Proc. Natl. Acad. Sci. USA, 76, 2640-2643. The tubes are vortexed and preincubated in a shaking 37° C. water bath for 15 minutes.
Thereafter, the tubes are removed from the water bath and calcium ionophore solution (400 μg/ml A-23187; Sigma Chemical Co., St. Louis, Mo.) (0.025 ml), ^14 C-arachidonic acid (0.25 μCi in 0.025 ethanol; New England Nuclear Products, Boston, Mass.) (0.025 ml) and calcium chloride solution (CaCl2.2H2 O ); 105.8 mg/10 […]) (0.025 ml) are added in that order. The tubes are vortexed and returned to the water bath for 30 minutes. The reaction is then terminated by the addition of HCl (0.8N, 0.025 ml).
Extraction and concentration of ^14 C-labeled 5-HETE is performed as follows. First, solution containing 2 parts ethyl acetate, 3 parts CH2 Cl2 and 0.01 ml unlabeled arachidonic acid is added (5.01 ml) to each tube. The tubes are capped and briefly vortexed. The contents of each tube is poured into a polypropylene column fitted with a porous polyethylene disc and Whatman phase separation filter paper. The organic phase is collected by gravity filtration into a conical centrifuge tube, While the aqueous phase is retained in the column by the phase separation paper. Each culture tube is rinsed once with the EtOAc:CH2 Cl2 solution (1.0 ml) and the wash added to the column. The organic phase is concentrated to (0.5 ml) using a Savant Speed Vac concentrator (Savant Instruments, Inc., Hicksville, N.Y.).
After concentration of the organic phase, the tubes are vortexed and stored covered on ice. An aliquot (0.01 ml) is then removed for liquid scintillation counting in a Beckman LS7500 Liquid Scintillation Counter (Beckman Instruments Corp., Fullerton, Calif.). Based on the count, the number of μl containing 1×10^5 cpm is calculated. This volume is applied to a silica gel covered glass plate in a 10 mm streak. The remaining fluid in the tube is measured via syringe and noted.
The TLC plate is placed in a chromatography chamber containing the following solvent system: CHCl3 :MeOH:HOAc:H2 O (v/v;90: 9:1:0.65). The plate is then air dried and counted on a Berthold Linear TLC Analyzer (Berthold Instruments, Inc., Pittsburgh, Pa.) for 30 minutes per lane if a dose response curve had been run, or for 5 min per lane if drug screening had been done. The integrated area of the 5-HETE band for each compound is converted to percent of control and analyzed. The percent inhibition at 100 μM compound concentration and the concentration (μM) which produces a 50% inhibition of 5-HETE synthesis (IC50), are determined for those compounds described in Examples 1-36, and are reported in Table 1 .

[2] = added at peak of contraction after antigen, read-out: Postchallenge mean percent inhibition
[3] = preincubation before ovalbumin antigen, read-out: Prechallenge mean percent inhibition
[4] = added at peak of contraction after antigen, read-out: Postchallenge IC50
[5] = preincubation before ovalbumin antigen, read-out: Prechallenge IC50

| IC50 [1] [µM] | SMILES | inhibition at 75 µM (guinea pig ileal strips; [2]) [%] | inhibition at 75 µM (guinea pig ileal strips; [3]) [%] | IC50 (guinea pig ileal strips; [4]) [µM] | IC50 (guinea pig ileal strips; [5]) [µM] | inhibition at 100 µM [1] [%] | inhibition at 75 µM (guinea pig ileal strips; positive control, preincubation, read-out: Prechallenge inhibition by the reference standard) [%] | inhibition at 1.9 µM (guinea pig ileal strips; 1.9 μM, positive control, added at peak of contraction, read-out: Postchallenge inhibition by the reference standard) [%] |
| --- | --- | --- | --- | --- | --- | --- | --- | --- |
| 5 | CCCCCCCc1ccc(C(=O)[C@@H]2CCCC[C@H]2C(=O)O)cc1 (relative stereo) [Example 23, Trans-2-(4-heptylbenzoyl)cyclohexane-1-carboxylic acid] | 76 | 100 | > 25 | 14 | 70 | – | – |
| – | CCCCCCCCCc1ccc(C(=O)[C@@H]2CCCC[C@H]2C(=O)O)cc1 (relative stereo) [Example 32, Trans-2-(4-n-nonylbenzoyl)cyclohexane-l-carboxylic acid] | 20 | 92 | – | – | 85 | – | – |
| – | NC1=NN(c2cccc(C(F)(F)F)c2)CC1 [BW-755C, reference compound] | – | – | – | – | – | 60 to 80 | – |
| – | CCCCCCc1ccc(C(=O)CCCCC(=O)O)cc1 [Example 5, 5-(4-n-Hexylbenzoyl)pentanoic acid] | 58 | 65 | – | – | 47 | – | – |
| – | CCCCCCCCc1ccc(C(=O)CCCCC(=O)O)cc1 [Example 6, 5-(4-n-Octylbenzoyl)pentanoic acid] | 0 | 63 | – | – | 77 | – | – |
| – | CCCCCCCc1ccc(C(=O)CCCCC(=O)O)cc1[N+](=O)[O-] [Example 7, 5-(3-Nitro-4-n-heptylbenzoyl)pentanoic acid] | 28 | 96 | > 75 | 14 | 84 | – | – |
| – | CCCCCCCc1ccc(C(=O)CCCCC(=O)O)cc1N [Example 8, 5-(3-Amino-4-n-heptylbenzoyl)pentanoic acid] | 48 | 94 | > 75 | 37 | 47 | – | – |
| – | CCCCCCOc1ccccc1C(=O)CCCCC(=O)O [Example 13, 5-(2-n-Hexyloxybenzoyl)pentanoic acid] | 43 | 87 | 45 | 15 | 64 | – | – |
| – | CCCCCc1ccc(C(=O)Cc2cccc(C(=O)O)c2)cc1 [Example 15, 3-(4-pentylphenacyl)benzoic acid] | 13 | 81 | > 75 | 27 | 78 | – | – |
| 4 | CCCCCCCc1ccc(C(=O)c2cccc(C(=O)O)c2)cc1 [Example 16, 3-(4-n-heptylbenzoyl)benzoic acid] | 63 | 86 | 57 | 12 | 75 | – | – |
| – | CCCCCCCc1ccc(C(=O)Cc2ccccc2C(=O)O)cc1 [Example 17, 2-(4-n-Heptylphenacyl)benzoic acid] | 100 | 90 | 33 | 10 | 80 | – | – |
| – | CCCCCCCc1ccc(C(=O)Cc2cccc(C(=O)O)c2)cc1 [Example 18, 3-(4-n-Heptylphenacyl)benzoic acid] | 70 | 97 | 51 | 10 | 73 | – | – |
| – | CCCCCCCCc1ccc(C(=O)Cc2cccc(C(=O)O)c2)cc1 [Example 19, 3-(4-n-Octylphenacyl)benzoic acid] | 30 | 78 | > 75 | 51 | < 44 | – | – |
| – | CCCCCCCc1ccc(C(=O)CC(C)(C)CC(=O)O)cc1 [Example 24, 4-(4-Heptylbenzoyl)-3,3-dimethylbutanoic acid] | 43 | 84 | 40 | 26 | 51 | – | – |
| – | CCCCOc1ccc(C(=O)c2cccc(C(=O)O)c2)c(OC)c1 [Example 25, 3-(4-Butoxy-2-methoxybenzoyl)benzoic acid] | 46 | 84 | 14 | 22 | 70 | – | – |
| – | CCCCOc1ccc(C(=O)c2cccc(C(=O)O)c2)c(O)c1 [Example 26, 3-(4-Butoxy-2-hydroxybenzoyl)benzoic acid] | 59 | 85 | – | – | – | – | – |
| – | CCCCOc1cc(OC)ccc1C(=O)c1cccc(C(=O)O)c1 [Example 28, 3-(2-Butoxy-4-methoxybenzoyl)benzoic acid] | 35 | 61 | – | – | – | – | – |
| – | CCCCCCOc1cc(C)ccc1C(=O)c1cccc(C(=O)O)c1 [Example 31, 3-(2-n-Hexyloxy-4-methylbenzoyl)-benzoic acid] | 59 | 81 | > 75 | 44 | – | – | – |
| – | CCCCCCCc1ccc(C(=O)c2cccc(-c3nn[nH]n3)c2)cc1 [Example 36, 5-3-(4-n-Heptylbenzoyl)phenyl!tetrazole] | 14 | 85 | > 75 | 7 | – | – | – |
| – | CCCc1c(OCC(O)COc2ccc3c(=O)cc(C(=O)O)oc3c2CCC)ccc(C(C)=O)c1O (centres unmarked) [FPL-55712, reference compound] | – | – | – | – | – | – | 70 to 90 |
